We go through 8 compounds from US7939057B2, “Methods and compositions for modulating the mobilization of stem cells” (Mount Sinai School of Medicine, priority 2006, dated 2011).

Where a name gives a salt, the structure may show the parent alone. Marks after values point to notes of the source that are not given here. A value given as a limit tells only on which side of the number the result lay.

In data set [1] the test system is hematopoietic stem and progenitor cells (HSPCs). The data set can be described thus: G-CSF-induced mobilization of hematopoietic progenitors (circulating CFU-C). The class given is in vivo, mice. The note with it: for G-CSF-induced mobilization with clenbuterol: clenbuterol 2 mg/kg/day i.p. two days before and during G-CSF. On the procedure: (§1) To induce HSPC mobilization, mice were injected with recombinant human G-CSF (Filgrastim, Amgen, Thousand Oaks, Calif., 250 μg/kg/day, every 12 hours, 8 divided doses, s.c.) in PBS supplemented with 0.1% endotoxin free bovine serum albumin (BSA) or fucoidan (Sigma; 2 doses of 100 mg/kg with 2 h interval, i.p.) in PBS. Blood was harvested 3 h (G-CSF) or 1 h (fucoidan). CFU-C assays were carried out as previously described (Katayama, Y., and Frenette, P. S. (2003). Galactocerebrosides are required postnatally for stromal-dependent bone marrow lymphopoiesis. Immunity 18, 789-800).
A chronic guide cannula (1.0 mm) was implanted stereotaxically into the lateral ventricle (coordinates AP, −0.7 mm; DV, −2.4 mm; ML, 1.5 mm, from bregma). One week after implantation, mice received a reduced dose of G-CSF (25 μg/kg daily for 4 doses) either by ICV infusion (rate: 0.4 μL/min) or by s.c. injection.
(§2) Newborn C57BL/6 mice were injected s.c. with 6OHDA (100 mg/kg, Sigma) or vehicle (saline) on postnatal days 2, 4, 6, 8 and 9. HSPC mobilization was induced at 3 weeks of age. For SNS disruption in adult C57BL6 mice, 4 week-old animals were injected i.p. with 2 doses of 6OHDA or vehicle, 100 mg/kg on day 0, 250 mg/kg on day 2, and G-CSF treatment was begun on day 5. For β-adrenergic receptor blockade, 4 week-old C57BL/6 mice were treated with propranolol (0.5 g/L in drinking water, Sigma) or control pure water for 3 weeks prior to mobilization. For rescue experiments, clenbuterol (2 mg/kg/day, i.p.) was injected starting day −2 prior to and continued during G-CSF treatment.

Data set [2] concerns catecholaminergic neurons. Description: Tissue catecholamines after 6-hydroxydopamine treatment (HPLC, heart). The class given is in vivo, C57BL/6 mice. The note with it: 5 week-old C57BL6 mice treated perinatally with 6OHDA, n=3, p<0.05 vs PBS. The procedure: as §2
Hearts from 5 week-old C57BL6 mice treated perinatally with 6-hydroxydopamine (6OHDA) or PBS control were homogenized in 0.1 M trichloroacetic acid containing 10 mM sodium acetate, 0.1 mM EDTA, 1 μM isoproterenol (as internal standard), and 10.5% methanol (pH 3.8). Catecholamine levels were determined by HPLC at the Neurochemistry Core Lab, Vanderbilt University's Center for Molecular Neuroscience research (Nashville, Tenn.). * p<0.05 compared with PBS control. n=3 mice.

In another data set the test system is hematopoietic progenitor. The data set can be described thus: AMD3100-induced hematopoietic progenitor mobilization (stem cell egress). The class given is in vivo, C57BL/6 mice. The procedure: Studies were done to determine the effect of destruction of dopaminergic and noradrenergic neurons on stem cell egress. In these studies, newborn C57BL/6 mice were injected subcutaneously with 6OHDA (100 mg/kg, Sigma) or vehicle (normal saline) on postnatal days 2, 4, 6, 8, and 9. Hematopoietic progenitor mobilization was induced at 34 weeks of age, by subcutaneous injection of AMD3100 (5 mg/kg) in normal saline. Peripheral blood was harvested retroorbitally one hour post injection. P-value was calculated using two-tailed Student's t-test assuming unequal variances.
Studies were done to determine the effect of the beta agonist clenbuterol on stem cell egress. In this study, all drugs were dissolved in normal saline (0.9% w/v NaCl), with a delivery volume of 10 μL/g body mass. 10 μl/g saline i.p. or 2 mg/kg clenbuterol i.p. were given to adult (8-10 week old) C57BL6 mice 1 hour prior to hematopoietic progenitor mobilization induced by […] s.c. Peripheral blood was harvested retroorbitally one hour post AMD3100 injection. P-value was calculated using two-tailed Student's t-test assuming unequal variances.

Another data set has as its system circulating tumor cells. The note with it: AMD3100 5 mg/Kg, blood 1 h later; planned experiment.
A further data set deals with norepinephrine. The data set can be described thus: Norepinephrine turnover in hearts after AMPT. The class given is in vivo, mice. The note with it: AMPT 300 mg/kg, mean±sem, n=4-5. The procedure: FIG. 11. Norepinephine turnover in tissues following G-CSF administration in Cgt littermates. • To assess turnover rate, Cgt were administered the catecholamine synthesis inhibitor α-methyl-p-tyrosine (AMPT, 300 mg/kg, Sigma) or were left untreated. Animals were sacrificed 4 h after AMPT injection. Hearts were rapidly removed, weighed, frozen in liquid nitrogen and stored at −80° C. for norepinephrine measurements. NE levels were determined by HPLC at the Neurochemistry Core Lab, Vanderbilt University's Center for Molecular Neuroscience Research (Nashville, Tenn.). Under steady-state conditions, the decline of norepinephrine (NE) reflects the synthesis rate and the sympathetic tone. n=4-5 mice per group; * p<0.05.
Decline in tissue levels of norepinephrine obeys first order kinetics (Brodie, B. B., Costa, E., Dlabac, A., Neff, N. H., and Smookler, H. H. (1966). Application of steady state kinetics to the estimation of synthesis rate and turnover time of tissue catecholamines. J Pharmacol Exp Ther 154, 493-498): […]

Another data set has as its system SDF-1. The data set can be described thus: SDF-1 secretion by stromal cell line MS-5 (ELISA). In kind it is cell-based. The note with it: 72 h exposure of MS-5 cells. An excerpt: Studies were also done to determine the effect of norepinephrine or a beta receptor agonist on SDF-1 secretion by a stromal cell line and to determine if there is a correlation with stem cell egress. […] This corresponds with an increase in the stem cell egress.

In data set [3] the test system is hematopoietic stem and progenitor cells (HSPCs). Description: Fucoidan-induced mobilization of hematopoietic progenitors (circulating CFU-C). The class given is in vivo. The note with it: Cgt−/− mice; 2 doses of 100 mg/kg i.p. The procedure:
as §1

Excerpt for circulating tumor cells: Luciferase expression will allow us to monitor distant metastases whereas GFP expression will permit to quantify the number of circulating tumor cells under baseline conditions and following treatment with stem cell “mobilizers”. Firstly, we will evaluate the effect of CXCR4 inhibition, using the specific antagonist AMD3100 on circulating tumor cells. Blood from NOD/SCID mice bearing tumors (day 35 for PC3lucGFP, day 15 for PC3MlucGFP) will be harvested at baseline to evaluate steady-state levels of circulating tumor cells. Mice will then be injected with AMD3100 at a dose of 5 mg/Kg and blood will be harvested 1 h later to evaluate the number of circulating tumor cells. […] To quantify the absolute counts of tumor cells, we will determine the number of circulating nucleated cells using an automatic cell counter (available in the PI's laboratory), and the proportion of GFP+ cells will be evaluated by flow cytometry in which a large sampling (>500,000 events) will be acquired owing to the rarity of circulating tumor cells.

Regarding `NCCc1cc(O)c(O)cc1O` [6OHDA, 6-hydroxydopamine], the G-CSF-elicited mobilization entry in data set [1] (6OHDA-treated adult C57BL/6 mice) is recorded as “significantly reduced”. Further, the “number of HSPCs mobilized by G-CSF” value in data set [1] (perinatally 6OHDA-lesioned mice vs vehicle littermates) was “dramatically reduced”. Also, the “baseline CFU-C counts per bone” value in data set [1] (perinatally 6OHDA-treated mice, steady-state BM) was “did not alter”. Further, in data set [2], the Dopamine was 10 ± 10* pmol/mg tissue, the Epinephrine was 41 ± 20* pmol/mg tissue and the Norepinephrine was 49 ± 10* pmol/mg tissue. Moreover, the “stem cell egress induced by AMD3100” value with hematopoietic progenitor (C57BL/6 mice given 6OHDA 100 mg/kg s.c. postnatal days 2, 4, 6, 8, 9, AMD3100 5 mg/kg s.c. at 34 weeks of age, blood one hour post injection) was “decreased in a dose dependent manner”.

On to `c1cc(CN2CCCNCCNCCCNCC2)ccc1CN1CCCNCCNCCCNCC1` [AMD3100, 1,1′-[1,4-phenylene-bis(methylene)]-bis(1,4,8,11-tetra-azacyclotetradecane) octahydrochloride dehydrate], for which the “number of circulating tumor cells” value in the data set with circulating tumor cells is “will increase the number of circulating tumor cells”.

For the compound `CC(N)(Cc1ccc(O)cc1)C(=O)O` (stereo not drawn) [AMPT, α-methyl-p-tyrosine], the “Level after AMPT inhibition, 4 h (norepinephrine, heart)” value turned out to be 198 ± 38 pg/mg wet weight in the data set with norepinephrine (Cgt+/+, Cgt+/− mice) and 335 ± 32 pg/mg wet weight with norepinephrine (Cgt−/− mice).

With `CC(C)NCC(O)c1ccc(O)c(O)c1` (stereo not drawn) [Isoproterenol], the SDF-1 secretion result with SDF-1 was “decreased in a dose-dependent manner”.

For the compound `CC(C)(C)NCC(O)c1cc(Cl)c(N)c(Cl)c1` (stereo not drawn) [clenbuterol], the “G-CSF-induced mobilization with clenbuterol” value is given as “further enhanced mobilization” in data set [1] (Dbh+/− controls) and “rescued in part the mobilization defect” in data set [1] (Dbh−/− mice). The “mobilization by clenbuterol by itself” value in data set [1] (same dose schedule, no G-CSF, data not shown) is reported as “did not trigger mobilization”. Further, the “stem cell egress induced by AMD3100 with clenbuterol” value in the data set with hematopoietic progenitor (adult C57BL6 mice, clenbuterol 2 mg/kg i.p. 1 hour prior to AMD3100 s.c., blood one hour post AMD3100) is recorded as “boost stem cell egress in a dose dependent manner”.

In the case of `NC[C@H](O)c1ccc(O)c(O)c1` [norepinephrine], the SDF-1 secretion result in the data set with SDF-1 is recorded as “decreased in a dose-dependent manner”.

Regarding `CC(C)NCC(O)COc1cccc2ccccc12` (stereo not drawn) [propranolol, 1-[(1-Methylethyl)amino]-3-(1-naphthalenyloxy)-2-propanol], the “reduction of the number of HSPCs elicited by G-CSF” value in data set [1] (C57BL6 mice treated for three weeks with propranolol (0.5 g/L in drinking water)) is reported as over 20%.

With fucoidan, in data set [3], the “CFU-C mobilization by fucoidan” value was “not mobilized”.
